Data on 29 compounds can be found in patent US10745361B2, “Piperazine derivatives having multimodal activity against pain” (ESTEVE PHARMACEUTICALS, S.A., priority 2013, dated 2020).

pKi: −log10 of the molar value.

The target in the assay is human σ1 receptor and human μ-opioid receptor. Description: Human σ1 receptor radioligand assay and human μ-opioid receptor radioligand assay (μ and σ1 dual binding). On the set-up: key to μ and σ1 dual binding: +: Both Ki-μ and Ki-σ1>=500 nM; ++: One K, <500 nM while the other K, is >=500 nM; +++: Both Ki-μ and Ki-σ1<500 nM; ++++: Both Ki-μ and Ki-σ1<100 nM. The note with it: one class for both Ki: σ1 ([3H](+)-pentazocine, transfected HEK-293 membranes) and μ-opioid ([3H]-DAMGO, transfected CHO-K1 membranes). How it is done: Human σ1 Receptor Radioligand Assay
To investigate binding properties of σ1 receptor ligands to human σ1 receptor, transfected HEK-293 membranes and [^3H](+)-pentazocine (Perkin Elmer, NET-1056), as the radioligand, were used. The assay was carried out with 7 μg of membrane suspension, 5 nM of [^3H](+)-pentazocine in either absence or presence of either buffer or 10 μM Haloperidol for total and non-specific binding, respectively. Binding buffer contained Tris-HCl 50 mM at pH 8. Plates were incubated at 37° C. for 120 minutes. After the incubation period, the reaction mix was then transferred to MultiScreen HTS, FC plates (Millipore), filtered and plates were washed 3 times with ice-cold 10 mM Tris-HCL (pH7.4). Filters were dried and counted at approximately 40% efficiency in a MicroBeta scintillation counter (Perkin-Elmer) using EcoScint liquid scintillation cocktail
Human μ-Opioid Receptor Radioligand Assay
To investigate binding properties of p-opioid receptor ligands to human p-opioid receptor, transfected CHO-K1 cell membranes and [^3H]-DAMGO (Perkin Elmer, ES-542-C), as the radioligand, were used. The assay was carried out with 20 μg of membrane suspension, 1 nM of [^3H]-DAMGO in either absence or presence of either buffer or 10 μM Naloxone for total and non-specific binding, respectively. Binding buffer contained Tris-HCl 50 mM, MgCl2 5 mM at pH 7.4. Plates were incubated at 27° C. for 60 minutes. After the incubation period, the reaction mix was then transferred to MultiScreen HTS, FC plates (Millipore), filtered and plates were washed 3 times with ice-cold 10 mM Tris-HCL (pH 7.4). Filters were dried and counted at approximately 40% efficiency in a MicroBeta scintillation counter (Perkin-Elmer) using
EcoScint liquid scintillation cocktail.
The following scale as been adopted for representing the binding to the σ1 receptor and the μ-opiod receptor expressed as Ki: • + Both Ki-μ and Ki-σ1>=500 nM • ++ One K, <500 nM while the other K, is >=500 nM • +++ Both Ki-μ and Ki-σ1<500 nM • ++++ Both Ki-μ and Ki-σ1<100 nM
As a reminder, the pKi is −log10 of the Ki, conventionally taken in molar units. In the case of `CC(C)S(=O)(=O)Nc1cccc(N2CC3CN(Cc4cn(-c5ccccc5)nn4)CC3C2)c1` (centres unmarked) [Example 30, N-(3-(5-((1-phenyl-1H-1,2,3-triazol-4-yl)methyl)hexahydropyrrolo[3,4-c]pyrrol-2(1H)-yl)phenyl)propane-2-sulfonamide], the pKi was greater than 7.00.

`Nc1cccc(N2CCN(Cc3cn(-c4ccccc4)nn3)CC2)c1` [Example 31, 3-(4-((1-phenyl-1H-1,2,3-triazol-4-yl)methyl)piperazin-1-yl)aniline]: the negative-log Ki (pKi) is no more than 6.30.

Consider `CC(C)(C)NS(=O)(=O)c1cccc(N2CCN(Cc3cn(-c4ccccc4)nn3)CC2)c1` [Example 32, N-tert-butyl-3-(4-((1-phenyl-1H-1,2,3-triazol-4-yl)methyl)piperazin-1-yl)benzenesulfonamide], for which the “μ and σ1 dual binding” value is recorded as “++”.

`CS(=O)(=O)Nc1cccc(N2CCN(Cc3cnn(-c4ccccc4)c3)CC2)c1` [Example 33, N-(3-(4-((1-phenyl-1H-pyrazol-4-yl)methyl)piperazin-1-yl)phenyl)methanesulfonamide] showed a negative logarithm of the Ki (pKi) greater than 7.00.

`CS(=O)(=O)Nc1cccc(N2CCN(Cc3cnn(Cc4ccccc4)c3)CC2)c1` [Example 34, N-(3-(4-((1-benzyl-1H-pyrazol-4-yl)methyl)piperazin-1-yl)phenyl)methanesulfonamide]: the pKi is greater than 6.30.

On to `CS(=O)(=O)Nc1cccc(N2CCN(Cc3cnn(Cc4ccccn4)c3)CC2)c1` [Example 35, N-(3-(4-((1-(pyridin-2-ylmethyl)-1H-pyrazol-4-yl)methyl)piperazin-1-yl)phenyl)methanesulfonamide], for which the “μ and σ1 dual binding” value is listed as “++”.

As for `CC(C)S(=O)(=O)Nc1cccc(N2CCN(Cc3cnn(-c4ccccc4)c3)CC2)c1` [Example 36, N-(3-(4-((1-phenyl-1H-pyrazol-4-yl)methyl)piperazin-1-yl)phenyl)propane-2-sulfonamide], the pKi is greater than 7.00.

Compound `Oc1cccc(N2CCN(Cc3cnn(-c4ccccc4)c3)CC2)c1` [Example 37, 3-(4-((1-phenyl-1H-pyrazol-4-yl)methyl)piperazin-1-yl)phenol] gave a pKi greater than 7.00.

`CS(=O)(=O)Nc1cccc(N2CCN(Cc3cnn(-c4ccccn4)c3)CC2)c1` [Example 38, N-(3-(4-((1-(pyridin-2-yl)-1H-pyrazol-4-yl)methyl)piperazin-1-yl)phenyl)methanesulfonamide] showed a negative logarithm of the Ki (pKi) greater than 6.30.

For `CC(C)S(=O)(=O)Nc1cccc(N2CCN(Cc3cnn(-c4ccccn4)c3)CC2)c1` [Example 39, N-(3-(4-((1-(pyridin-2-yl)-1H-pyrazol-4-yl)methyl)piperazin-1-yl)phenyl)propane-2-sulfonamide], the pKi is greater than 7.00.

For the compound `CC(C)S(=O)(=O)Nc1cccc(N2CCN(Cc3cn(Cc4ccccc4)cn3)CC2)c1` [Example 40, N-(3-(4-((1-benzyl-1H-imidazol-4-yl)methyl)piperazin-1-yl)phenyl)propane-2-sulfonamide], the pKi is greater than 6.30.

On to `CS(=O)(=O)Nc1cccc(N2CCN(Cc3cn(-c4ccccc4)nn3)CC2)n1` [Example 41, N-(6-(4-((1-phenyl-1H-1,2,3-triazol-4-yl)methyl)piperazin-1-yl)pyridin-2-yl)methanesulfonamide], for which the “μ and σ1 dual binding” value is listed as “++”.

In the case of `CC(C)S(=O)(=O)Nc1cccc(N2CCN(Cc3cn(-c4ccccc4)nn3)CC2)n1` [Example 42, N-(6-(4-((1-phenyl-1H-1,2,3-triazol-4-yl)methyl)piperazin-1-yl)pyridin-2-yl)propane-2-sulfonamide], the pKi was greater than 6.30.

As to `CC(C)S(=O)(=O)Nc1cccc(N2CCN(Cc3cn(-c4ccccc4F)nn3)CC2)n1` [Example 43, N-(6-(4-((1-(2-fluorophenyl)-1H-1,2,3-triazol-4-yl)methyl)piperazin-1-yl)pyridin-2-yl)propane-2-sulfonamide], the “μ and σ1 dual binding” value is given as “++”.

Take `O=S(=O)(Nc1cccc(N2CCN(Cc3cn(-c4ccccc4F)nn3)CC2)n1)C1CC1` [Example 44, N-(6-(4-((1-(2-fluorophenyl)-1H-1,2,3-triazol-4-yl)methyl)piperazin-1-yl)pyridin-2-yl)cyclopropanesulfonamide]: the pKi was greater than 6.30.

As for `CCC(=O)Nc1cccc(N2CCN(Cc3cn(-c4ccccc4F)nn3)CC2)n1` [Example 45, N-(6-(4-((1-(2-fluorophenyl)-1H-1,2,3-triazol-4-yl)methyl)piperazin-1-yl)pyridin-2-yl)propionamide], the “μ and σ1 dual binding” value is “++”.

Turning to `CC(C)S(=O)(=O)Nc1cccc(N2CCN(Cc3cn(-c4ccccc4O)nn3)CC2)n1` [Example 46, N-(6-(4-((1-(2-hydroxyphenyl)-1H-1,2,3-triazol-4-yl)methyl)piperazin-1-yl)pyridin-2-yl)propane-2-sulfonamide], the “μ and σ1 dual binding” value was “++”.

Turning to `CC(C)S(=O)(=O)Nc1cccc(N2CCN(Cc3cnn(-c4ccccn4)c3)CC2)n1` [Example 47, N-(6-(4-((1-(pyridin-2-yl)-1H-pyrazol-4-yl)methyl)piperazin-1-yl)pyridin-2-yl)propane-2-sulfonamide], the pKi was greater than 6.30.

For the compound `CC(C)S(=O)(=O)Nc1cccc(N2CCN(Cc3cn(-c4c(F)cccc4F)nn3)CC2)n1` [Example 48, N-(6-(4-((1-(2,6-difluorophenyl)-1H-1,2,3-triazol-4-yl)methyl)piperazin-1-yl)pyridin-2-yl)propane-2-sulfonamide], the “μ and σ1 dual binding” value is “++”.

Take `CC(C)S(=O)(=O)Nc1cccc(N2CCN(Cc3cn(-c4ccc(F)c(F)c4)nn3)CC2)n1` [Example 49, N-(6-(4-((1-(3,4-difluorophenyl)-1H-1,2,3-triazol-4-yl)methyl)piperazin-1-yl)pyridin-2-yl)propane-2-sulfonamide]: the “μ and σ1 dual binding” value is “++”.

As to `CC(C)S(=O)(=O)Nc1cccc(N2CCN(Cc3cn(-c4ccc(Cl)cc4F)nn3)CC2)n1` [Example 50, N-(6-(4-((1-(4-chloro-2-fluorophenyl)-1H-1,2,3-triazol-4-yl)methyl)piperazin-1-yl)pyridin-2-yl)propane-2-sulfonamide], the “μ and σ1 dual binding” value was “++”.

Turning to `O=S(=O)(Nc1cccc(N2CCN(Cc3cn(-c4ccccc4)nn3)CC2)n1)C1CC1` [Example 51, N-(6-(4-((1-phenyl-1H-1,2,3-triazol-4-yl)methyl)piperazin-1-yl)pyridin-2-yl)cyclopropanesulfonamide], the pKi was greater than 6.30.

Turning to `CC(C)S(=O)(=O)Nc1ccc(Cl)c(N2CCN(Cc3cn(-c4ccccc4)nn3)CC2)n1` [Example 52, N-(5-chloro-6-(4-((1-phenyl-1H-1,2,3-triazol-4-yl)methyl)piperazin-1-yl)pyridin-2-yl)propane-2-sulfonamide], the pKi is greater than 6.30.

The compound `CC(C)S(=O)(=O)Nc1cccc(N2CC3CN(Cc4cn(-c5ccccc5)nn4)CC3C2)n1` (centres unmarked) [Example 53, N-(6-(5-((1-phenyl-1H-1,2,3-triazol-4-yl)methyl)hexahydropyrrolo[3,4-c]pyrrol-2(1H)-yl)pyridin-2-yl)propane-2-sulfonamide] had a pKi greater than 6.30.

With `CC(C)S(=O)(=O)Nc1cccc(N2CC3CN(Cc4cn(Cc5ccccc5)nn4)CC3C2)n1` (centres unmarked) [Example 54, N-(6-(5-((1-benzyl-1H-1,2,3-triazol-4-yl)methyl)hexahydropyrrolo[3,4-c]pyrrol-2(1H)-yl)pyridin-2-yl)propane-2-sulfonamide], the “μ and σ1 dual binding” value was “++”.

Take `CC(C)S(=O)(=O)Nc1cccc(N2CC3CN(Cc4cn(Cc5ccccn5)nn4)CC3C2)n1` (centres unmarked) [Example 55, N-(6-(5-((1-(pyridin-2-ylmethyl)-1H-1,2,3-triazol-4-yl)methyl)hexahydropyrrolo[3,4-c]pyrrol-2(1H)-yl)pyridin-2-yl)propane-2-sulfonamide]: the “μ and σ1 dual binding” value is “++”.

With `COc1cncc(-n2cc(CN3CCN(c4cccc(NS(=O)(=O)C(C)C)n4)CC3)nn2)c1` [Example 56, N-(6-(4-((1-(5-methoxypyridin-3-yl)-1H-1,2,3-triazol-4-yl)methyl)piperazin-1-yl)pyridin-2-yl)propane-2-sulfonamide], the “μ and σ1 dual binding” value was “++”.

Take `CC(C)S(=O)(=O)Nc1cccc(N2CCCN(Cc3cn(-c4ccccc4)nn3)CC2)n1` [Example 57, N-(6-(4-((1-phenyl-1H-1,2,3-triazol-4-yl)methyl)-1,4-diazepan-1-yl)pyridin-2-yl)propane-2-sulfonamide]: the pKi was greater than 7.00.

As for `CC(C)S(=O)(=O)Nc1cccc(N2CCN(Cc3cn(-c4ccc(Cl)cn4)nn3)CC2)n1` [Example 58, N-(6-(4-((1-(5-chloropyridin-2-yl)-1H-1,2,3-triazol-4-yl)methyl)piperazin-1-yl)pyridin-2-yl)propane-2-sulfonamide], the “μ and σ1 dual binding” value is recorded as “++”.
